Source: patent US8410130B2, “Synthesis of 8H-3A-aza-cyclopenta [A ]indenes and 5,10-dihydropyrrolo[1,2-B]isoquinolines derivatives and their use as antitumor therapeutic agents” (Academia Sinica, priority 2007, dated 2013)
Where two headings read alike, the source gives them in different places.

Columns and labels:
[1] = system: Human colon carcinoma HCT-116 cells; assay: In vitro cytotoxicity, sulforhodamine B (SRB) assay; assay type: cell-based
Source text: (§1) Human colon carcinoma HCT-116 cells, human prostate adenocarcinoma PC-3 and adenocarcinoma SK-OV-3 cells were obtained from American Type Culture Collection (ATCC, Rockville, Md.). Human mammary carcinoma (MX-1) tumor cells were obtained from MSKCC cell bank. The CCRF-CEM human lymphoblastic leukemia cells and their vinblastine resistant subline (CCRF-CEM/VBL, 680-fold resistance in vitro) were obtained from Dr. William Beck of the University of Illinois, Chicago, and CCRF-CEM/Taxol (330-fold resistance in vitro). Resistant cells CCRF-CEM/taxol were produced by exposing the parent cells to increasing sublethal concentration (IC50-IC90) of paclitaxel for six months.
(§2) In preparation for in vitro cytotoxicity assays, cells were cultured at an initial density 2-5×10^4 cells per milliliter. They were maintained in a 5% CO2-humidified atmosphere at 37° C. in RPMI medium 1640 (GIBCO/BRL) containing penicillin (100 units/mL), streptomycin (100 μg/mL, GIBCO/BRL), and 5% heat-inactivated FBS. For cells grown in suspension (such as CCRF-CEM and its sublines), cytotoxicity was measured, by using XTT microculture method in 96-well microtiter plates (Scudiero D A et al., Cancer Res. 1988, 48, 4827-4833). For solid tumor cells growing in a monolayer (such as MX-1 and HCT-116), cytotoxicity of the drug was determined, in duplicate, in 96-well microtiter plates by using the sulforhodamine B method (Skehan P et al., J. Natl. Cancer Inst 1990, 82, 1107-1112). For both methods, the absorbance of each well was measured with a microplate reader (Power Wave XS, Bio-Tek, Winooski, Vt.) after 72-hr incubation as described previously (Chou T-C et al., Proc. Natl. Acad. Sci. USA 2001, 98, 8113-8118). Dose-effect relationship data from 6 to 7 concentrations of each drug, in duplicate, were analyzed by using a computer program (Chou T-C et al., ComboSyn, Inc., Paramus, N J. 2005) based on the median-effect principle and plot (Chou T-C et al., Adv. Enzyme Regul. 1984, 22, 27-55; Chou T-C, Pharmacol. Rev. 2006, 58, 621-681).
(§3) The IC50 is defined by the concentration required to inhibit tumor cell growth by 50%. […] The growth inhibition of the compounds disclosed herein against human lymphoblastic leukemic cells (CCRF-CEM) and its drug-resistant sublines (resistant to vinblastine and taxol, CCRF-CEM/VBL and CCRF-CEM/taxol, respectively) is also shown in Table 5. […] Thus, the compounds disclosed herein are effective against multiple drug resistant tumors.

[2] = system: Human mammary carcinoma (MX-1) tumor cells; assay: as above; assay type: cell-based; settings: 72-hr incubation
Source text: as §1, §2, §3

[3] = system: CCRF-CEM human lymphoblastic leukemia cells; assay: In vitro cytotoxicity, XTT assay, 72-hr incubation; assay type: cell-based
Source text: as §1, §2, §3

CCRF-CEM/Taxol = assay: In vitro cytotoxicity, XTT assay, taxol resistant subline; assay type: cell-based, human; settings: for IC50: XTT assay, 72-hr incubation; for fold of cross-resistant, CCRF-CEM/Taxol vs IC50 of the parent cell line: numbers in brackets
Source text: as §1, §2, §3

CCRF-CEM/VBL = assay: In vitro cytotoxicity, XTT assay, vinblastine resistant subline; assay type: cell-based, human; settings: for IC50: XTT assay, 72-hr incubation; for fold of cross-resistant, CCRF-CEM/VBL vs IC50 of the parent cell line: numbers in brackets
Source text: as §1, §2, §3

[4] = Homo sapiens, HCT-116, 72-hr incubation

| SMILES | IC50 [1, 4] [nM] | IC50 ([2]; Homo sapiens) [nM] | IC50 ([3]; Homo sapiens, CCRF-CEM) [nM] | IC50 (CCRF-CEM/Taxol; Homo sapiens, CCRF-CEM) [nM] | fold of cross-resistant, CCRF-CEM/Taxol vs IC50 of the parent cell line (CCRF-CEM/Taxol) | IC50 (CCRF-CEM/VBL; Homo sapiens, CCRF-CEM) [nM] | fold of cross-resistant, CCRF-CEM/VBL vs IC50 of the parent cell line (CCRF-CEM/VBL) | IC50 ([1]; 72-hr incubation) [nM] | IC50 [2] [nM] | IC50 [3] [nM] | IC50 (CCRF-CEM/Taxol) [nM] | IC50 (CCRF-CEM/VBL) [nM] |
| --- | --- | --- | --- | --- | --- | --- | --- | --- | --- | --- | --- | --- |
| CNC(=O)OCc1c(COC(=O)NC)c2n(c1C)-c1ccccc1C2 [DA-1100, methyl carbamic acid 3-methyl-2-methylcarbamoyloxymethyl-8H-3a-aza-cyclopenta[a]inden-1-yl methyl ester] | 297 | 355 | 188 | 67 | [0.36x] | 126 | [0.67x] | – | – | – | – | – |
| OCc1c(CO)c(-c2ccccc2)n2c1Cc1ccccc1-2 [DA-1011, (2-hydroxymethyl-3-phenyl-8H-3a-azacyclopenta[a]inden-1-yl)-methanol] | 1850 | 1350 | 252 | 224 | [0.89x] | 213 | [0.85x] | – | – | – | – | – |
| CNC(=O)OCc1c(COC(=O)NC)c(-c2c(OC)cccc2OC)n2c1Cc1ccccc1-2 [DA-1127, Methylcarbamic acid 3-(2,6-dimethoxyphenyl)-2-methylcarbamoyloxymethyl-8H-3a-aza-cyclopenta[a]inden-1-ylmethyl ester] | 1110 | 5480 | 640 | 616 | [0.96x] | 697 | [1.08x] | – | – | – | – | – |
| CNC(=O)OCc1c(COC(=O)NC)c(-c2ccc(Cl)cc2)n2c1Cc1ccccc1C2 [DA-1117, methylcarbamic acid 3-(4-chlorphenyl)-2-methylcarbamoyloxymethyl-5,10-dihydropyrrolo[1,2-b]isoquinolin-1-ylmethyl ester] | – | – | – | – | [1.13x] | – | [1.09x] | 356 | 1170 | 191 | 216 | 208 |
| OCc1c(CO)c(-c2ccc(F)cc2)n2c1Cc1ccccc1-2 [DA-1024, (3-(4-Flourophenyl)-2-hydroxymethyl-8H-3a-aza-cyclopenta[a]inden-1-yl)methanol] | – | – | – | – | [2.6x] | – | [0.96x] | 8070 | 22300 | 4250 | 11000 | 4070 |
| CCc1c(COC(=O)NC)c(COC(=O)NC)c2n1-c1ccccc1C2 [DA-1101, methyl carbamic acid 3-ethyl-2-methyl carbamoyloxymethyl-8H-3a-aza-cyclopenta[a]inden-1-ylmethyl ester] | 707 | 670 | 68 | 99 | [1.46x] | 78 | [1.15x] | – | – | – | – | – |
| CNC(=O)OCc1c(COC(=O)NC)c(-c2cc(OC)c(OC)c(OC)c2)n2c1Cc1ccccc1-2 [DA-1129, Methylcarbamic acid 3-(3,4,5-trimethoxyphenyl)-2-methylcarbamoyloxymethyl-8H-3a-aza-cyclopenta[a]inden-1-ylmethyl ester] | 1830 | 7250 | 11800 | 14300 | [1.21x] | 8400 | [0.71x] | – | – | – | – | – |
| OCc1c(CO)c(-c2ccc(Cl)cc2)n2c1Cc1ccccc1C2 [DA-1116, [3-(4-Chlorophenyl)-2-hydroxymethyl-5,10-dihydropyrrolo[1,2-b]isoquinolin-1-yl]methanol] | 2640 | 3270 | 600 | 601 | [1.00x] | 543 | [0.91x] | – | – | – | – | – |
| OCc1c(CO)c(-c2ccc(F)c(F)c2)n2c1Cc1ccccc1-2 [DA-1025, (3-(3,4-Diflourophenyl)-2-hydroxymethyl-8H-3a-aza-cyclopenta[a]inden-1-yl)methanol] | – | – | – | – | [1.6x] | – | [1.98x] | 10800 | 7000 | 4910 | 7780 | 7270 |
| COc1ccc(-c2c(CO)c(CO)c3n2-c2ccccc2C3)cc1 [DA-1005, (2-Hydroxymethyl-3-(4-methoxyphenyl)-8H-3a-aza-cyclopenta[a]inden-1-yl)methanol] | 5830 | 10800 | 1160 | 1660 | [1.4x] | 1670 | [1.4x] | – | – | – | – | – |
| COc1ccc(-c2c(CO)c(CO)c3n2-c2ccc(OC)cc2C3)cc1 [DA-1130, (2-hydroxymethyl-6-methoxy-3-(4′-methoxyphenyl)-8H-3a-aza-cyclopenta[a]inden-1-yl)methanol] | – | – | – | – | [1.10x] | – | [0.52x] | 610 | 1520 | 118 | 130 | 61 |
| CNC(=O)OCc1c(COC(=O)NC)c(-c2ccc(OC)cc2)n2c1Cc1ccccc1C2 [DA-1109, methylcarbamic acid 3-(4-methoxyphenyl)-2-methylcarbamoyloxymethyl-5,10-dihydr-pyrrolo[1,2-b]isoquinolin-1-ylmethyl ester] | – | – | – | – | [0.88x] | – | [0.60x] | 1110 | 1310 | 184 | 161 | 111 |
| CNC(=O)OCc1c(COC(=O)NC)c(-c2ccccc2)n2c1Cc1ccccc1-2 [DA-1022, Methylcarbamic acid 2-methylcarbamoyloxymethyl-3-phenyl-8H-3a-aza-cyclopenta[a] inden-1-ylmethylester] | 761 | 5920 | 357 | 556 | [1.6x] | 1620 | [4.5x] | – | – | – | – | – |
| COc1ccc(-c2c(CO)c(CO)c3n2-c2ccccc2C3)cc1OC [DA-1097, (3-(3,4-Dimethoxyphenyl)-2-hydroxymethyl-8H-3a-aza-cyclopenta[a]inden-1-yl)methanol] | 4090 | 11100 | 1040 | 1950 | [1.87x] | 1140 | [1.1x] | – | – | – | – | – |
| CNC(=O)OCc1c(COC(=O)NC)c(-c2ccc(OC)c(OC)c2)n2c1Cc1ccccc1-2 [DA-1125, Methylcarbamic acid 3-(3,4-dimethoxyphenyl)-2-methylcarbamoyloxymethyl-8H-3a-aza-cyclopenta[a]inden-1-ylmethyl ester] | 680 | 1840 | 350 | 497 | [1.42x] | 374 | [1.07x] | – | – | – | – | – |
| CNC(=O)OCc1c(COC(=O)NC)c(-c2ccc(F)cc2)n2c1Cc1ccccc1-2 [DA-1026, Methylcarbamic acid 3-(4-flourophenyl)-2-methylcarbamoyloxymethyl-8H-3a-aza-cyclopenta[a]inden-1-ylmethyl ester] | – | – | – | – | [2.1x] | – | [2.2x] | 397 | 744 | 137 | 284 | 307 |
| COc1cc(-c2c(CO)c(CO)c3n2-c2ccccc2C3)cc(OC)c1OC [DA-1128, (2-Hydroxymethyl-3-(3,4,5-trimethoxyphenyl)-8H-3a-aza-cyclopenta[a]inden-1-yl)-methanol] | 30600 | 17600 | 2050 | 1040 | [0.50x] | 1140 | [0.56x] | – | – | – | – | – |
